Values joined by “and” are separate entries in the source; they are usually repeats but may differ in a detail not shown here. Equal values may be shown once.
Columns and labels:
[1] = at 25° C.; cited from earlier work
[2] = Chelating-agent leaching of comminuted CCA treated wood, chromium; settings: weight basis, before being adjusted for moisture content
Method: (§1) 32 grams of the comminuted treated wood was used to represent 1 mole of the contaminants, and was reacted with 1000 ml of 0.1 mole ethylenediamine-N,N,N′,N′-tetraacetic acid at a temperature of 70° C. for a period of 6 hours. The sample was agitated and allowed to settle periodically to thoroughly mix the wood and the solution, as well as to facilitate leaching. After the last settling period, the mixture stratified into a green colored supernatant which contained the chelated CCA components in soluble form at the top, and clean looking sawdust at the bottom of the reaction container.
(§2) Upon completion of reaction, the supernatant was decanted and retained. The solid section was allowed to drain freely for 15 minutes, after which 500 ml of fresh water was added and the mixture was periodically mixed and allowed to settle for a period of 30 minutes. Similarly, the mixture stratified into a light green solution and cleaner looking saw dust. The liquid was decanted and added to the previously decanted liquid. The settled solids were wrapped in a 250μ filter paper and subjected to a weight of 6 pounds per square inch and allowed to drain. Upon completion, the drained liquid was added to the previously decanted liquids and sent for laboratory analysis. The retained solids were oven dried and analyzed for the target contaminants.
(§3) 100 grams of the comminuted treated wood was used to represent 1 mole of the contaminants and reacted with 1000 mL of 0.1 mole EDTA disodium solution at 30° C. for 30 hours. […]
(§4) Upon completion of reaction, the supernatant was decanted and retained. […] The retained solids were oven dried and analyzed for the target contaminants. […]
(§5) Upon completion of reaction, the supernatant was decanted and retained The solid section was allowed to drain freely for 15 minutes, after which 500 ml of fresh water with a known quality was added and the mixture was periodically mixed and allowed to settle for a period of 30 minutes. […] The retained solids were oven dried and analyzed for the target contaminants.

[3] = Chelating-agent leaching of comminuted CCA treated wood, arsenic; settings: weight basis, before being adjusted for moisture content
Method: as §1, §2, §3, §4, §5

[4] = Chelating-agent leaching of comminuted CCA treated wood, copper; settings: weight basis, before being adjusted for moisture content
Method: as §1, §2, §3, §4, §5

SMILES | Solubility [1] | Percent Removal, Chromium [2] | Percent Removal, Arsenic [3] | Percent Removal, Copper [4]
O=C(O)CN(CCN(CC(=O)O)CC(=O)O)CCN(CC(=O)O)CC(=O)O [Diethylenetriamine-N,N,N′,N″,N′-pentaacetic Acid] | 0.46 g/l00 mL at 25 °C | – | – | –
O=C(O)CN(CCN(CC(=O)O)CC(=O)O)CC(=O)O [EXAMPLE 1, ethylenediamine-N,N,N′,N′-tetraacetic acid] | – | 84.47% | 93.28% | 95.54%
O=C([O-])CN(CCN(CC(=O)[O-])CC(=O)O)CC(=O)O.[Na+].[Na+] [EXAMPLE 2, EDTA disodium] | – | 90.86% | 96.36% | 98.35%
O=C(O)CN(CCN(CC(=O)O)CC(=O)O)CC(=O)O [EXAMPLE 3, EDTA Free Acid] | – | 90.09% and 90.89% | 96.09% | 99.75%

Reference: patent publication US20030108462A1, “Method of extracting contaminants from solid matter” (priority 2001, published 2003)
